According to patent EP2759295A1, “Foam cell specific Liver X Receptor (LXR) alpha agonist, SIRT1 inhibitors as well as p300 inhibitors as pharmaceutically active agents” (Max-Planck-Gesellschaft zur Förderung der Wissenschaften …, priority 2013, dated 2014):
Entries after “also recorded” stand apart in the source; their conditions may differ.

Legend:
[1] = target: T1, LXRβ ligand binding domain (LBD) (Homo sapiens, UniProt P55055); assay: dual luciferase reporter gene assay with LXRβ ligand binding domain in HEK-293 cells; format: cell-based
T1 construct: expressed in transfected cells; host or cells: HEK-293
T1 sequence (P55055 154-460 limits assumed): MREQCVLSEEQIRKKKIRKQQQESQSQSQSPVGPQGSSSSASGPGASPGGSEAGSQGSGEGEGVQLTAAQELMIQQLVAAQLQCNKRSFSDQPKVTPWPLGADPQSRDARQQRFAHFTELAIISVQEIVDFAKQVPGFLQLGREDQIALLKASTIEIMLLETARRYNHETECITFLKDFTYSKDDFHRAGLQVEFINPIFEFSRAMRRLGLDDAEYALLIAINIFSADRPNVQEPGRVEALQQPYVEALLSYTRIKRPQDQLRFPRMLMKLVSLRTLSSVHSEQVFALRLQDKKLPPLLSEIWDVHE
Procedure: (§1) Selection and amplification were performed in E-coli cells. Purification of the plasmids was performed with a plasmid purification kit (Qiagen). For transfection HEK-293 cells were plated in 96-well plates (TPP) at a density of 3.5 x 10^4 cells/well for 24 h. To investigate the ligand binding on LXRα ligand binding domain, 0.04 ng of renilla luciferase coding plasmide pGL4.75 (Promega), 0.04 ng of LXRα-LBD/GAL4-DBD plasmide and 80 ng of firefly luciferase coding plasmide pGL4.31 (Promega) were used in a total volume of 200 µL for each well. In LXRβ binding assay 40 ng of LXRβ-LBD/GAL4-DBD plasmide were applied in each transfection mix. Transfection was carried out for 4 h with Lipofectamine 2000 Transfection Reagent (Invitrogen) in Opti-MEM medium (Invitrogen). Ligand treatment was performed at different concentrations for 24 h. For lysis and detection dual-luciferase reporter gene assay system (Promega) and POLARstar Omega (BMG LABTECH) were used.

[2] = target: T2, LXRα ligand binding domain (LBD) (Homo sapiens, UniProt Q13133); assay: dual luciferase reporter gene assay with LXRα ligand binding domain in HEK-293 cells; format: cell-based
T2 construct: expressed in transfected cells; host or cells: HEK-293
T2 sequence (Q13133 164-447): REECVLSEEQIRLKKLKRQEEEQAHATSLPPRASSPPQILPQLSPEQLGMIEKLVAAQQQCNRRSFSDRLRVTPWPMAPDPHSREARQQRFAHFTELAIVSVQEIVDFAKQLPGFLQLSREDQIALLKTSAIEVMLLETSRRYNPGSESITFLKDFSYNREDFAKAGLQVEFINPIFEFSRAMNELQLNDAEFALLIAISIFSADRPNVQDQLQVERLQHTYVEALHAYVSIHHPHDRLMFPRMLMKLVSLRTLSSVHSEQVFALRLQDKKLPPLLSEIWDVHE
Procedure: as §1, with “The ligand binding domain (LBD) of LXRα (amino acids 164 to 447) or LXRβ (amino acids 154 to 461) was cloned into pBIND [Renilla/Amp] vector (Promega). Selection” for “Selection”

foam cells [3] = assay: qPCR gene expression of LXRα target genes in foam cells; format: cell-based, human; conditions: 10 µM
Procedure: For generating macrophages differentiation was induced by 10^-8 M Phorbol 12-myristate 13-acetate (PMA) (Sigma-Aldrich) for 48 h. Ligand treatment of macrophages was performed for further 24 h. To induce foam cell formation macrophages were treated for additional 48 h with 100 µg/mL modified human oxidized low density lipoprotein (oxLDL) obtained from Source BioScience (RP-048). Ligand treatment was performed simultaneously with foam cell formation. Cholesterol loading and treatment was controlled with Oil Red O staining (Alfa Aeser). To investigate ligand induced effects on cell proliferation of THP-1 macrophages CellTiter-Glo Luminescent Cell Viability Assay (Promega) was utilized.
Total RNA isolation and purification was performed by using the RNeasy Mini Kit (QIAGEN) and RNase-Free DNase Set (QIAGEN). cDNA was generated by reverse transcription using the High Capacity cDNA Reverse Transcription Kit (Applied Biosystems). Gene expression was quantified using the SYBR Green PCR Master Mix (Applied Biosystems) and ABI 7900HT Fast Real Time PCR System (Applied Biosystems). In each reaction 0.8 ng/µL cDNA and 0.2 µM primers were used. Gene expression was calculated with the ΔΔCt-method. β-Actin was used for normalisation.

foam cells [4] = assay: microarray genome-wide gene expression and GSEA in foam cells; format: cell-based, human; conditions: 10 µM
Procedure: Microarray analyses were performed according to instructions of Illumina's TotalPrep RNA Amplification Kit followed by hybridisation on HumanHT-12 v3 or HumanHT-12 v4 Expression BeadChips (illumina). Data analysis was performed with GenomeStudio […].1 (illumina). Differential expression analysis was performed on background-subtracted data with cubic spline normalization and Benjamini-Hochberg FDR correction. […] Gene expression data were submitted in MIAME-compliant form to the NCBI Gene Expression Omnibus database (GSE39079). Bead array data were validated by quantitative real-time PCR. The Gene Distance Matrix was conducted in Euclidean space using the MeV 4.3 software tool [[…]. et al. Biotechniques (2003), 34, 374-378]. Gene Set Enrichment Analysis (GSEA) was performed as described elsewhere [Subramanian A. et al. Proc. Natl. Acad. Sci. […] Enrichment of pathways was tested using the Reactome (v3.0) and the KEGG (v3.0) database from the Molecular Signature Database (MSigDB). Heatmaps were carried out with […]. et al. BMC Bioinformatics (2012), 11, 121]. For presentation of treatment effects in the heatmap, the pathway normalized enrichment score (NES) was adjusted with the appropriate FDR as follows: adjustedNES = (1-FDR) x NES.

foam cells [5] = assay: triglyceride content in foam cells (Triglyceride Assay Kit); format: cell-based, human; conditions: 10 µM, 48 h
Procedure: THP-1 monocytes were plated out into 24-well plates (Nunc) at a density of 2 x 10^5 cells/well. After differentiation and treatment cells were lysed with 100 µL lysis buffer (PBS, 0.25 M NaCl, 1% Triton X-100). Total and free cholesterol were determined using the colorimetric enzymatic Amplex Red Cholesterol Assay Kit (Invitrogen). Triglycerides were quantified by Triglyceride Assay Kit (BioVision). For normalisation protein content was determined with Pierce 660 nm Protein Assay Reagent (Thermo Scientific).

In the case of `C(=C\c1ccc(OCC2CO2)cc1)/c1ccccc1` (centres unmarked) [compound 1, 2-[[4-[(E)-styryl]phenoxy]-methyl]oxirane], the “Transcriptional activation of LXRβ” value [1] is reported as “does not activate the LXRβ subtype”, the EC50 ([2]; +DMSO, LXRα reporter gene activation) is reported as 35 nM and the Efficacy ([2]; +DMSO, reporter gene transcription vs. T09) is reported as 6%. For the same compound, the “specificity LXRα vs. LXRβ” value ([2]; reporter-gene assays with LXRα and LXRβ LBD) was “characteristic specificity for LXRα”, the “expression of LXRα target genes (LXRα, SREBF1, ABCA1, APOE)” value (foam cells [3]) was “strongly in foam cells; also recorded: potent target gene expression similar to T09; also recorded: up-regulation of SREBF1 mRNA” and the “Lipid metabolism processes (gene set enrichment)” value (foam cells [4]) was “comparably up-regulated”. The “triacylglyceride biosynthesis (transcriptional regulation)” value (foam cells [4]) was “not regulated” and the triglyceride levels (foam cells [5]) was “triglyceride levels were not increased”.
